Assay results: ChEMBL document CHEMBL3045600, “Synthesis and Fungicidal Activities of Phenoxyphenyl Alkoxyiminoacetamide Derivatives” (J Pestic Sci, 1998)

How the values were obtained:
Type in all cases: functional
Thanatephorus cucumeris [1] = experiment: Fungicidal activity against Thanatephorus cucumeris assessed as rice sheath blight disease control at 31.3 ppm foliar application for 24 hr before inoculation at 26 +- 2 measured after 5 days by preventive manner
Thanatephorus cucumeris [2] = experiment: Fungicidal activity against Thanatephorus cucumeris assessed as rice sheath blight disease control at 7.8 ppm foliar application for 24 hr before inoculation at 26 +- 2 measured after 5 days by preventive manner
Thanatephorus cucumeris [3] = experiment: Fungicidal activity against Thanatephorus cucumeris assessed as rice sheath blight disease control at 2 ppm foliar application for 24 hr before inoculation at 26 +- 2 measured after 5 days by preventive manner
Podosphaera fuliginea [4] = experiment: Fungicidal activity against Podosphaera fuliginea assessed as cucumber powdery mildew control under greenhouse at 7.8 ppm foliar application 24 hr after inoculation on upper surface of leaf at 23 +/- 2 degC by curative manner
Podosphaera fuliginea [5] = experiment: Fungicidal activity against Podosphaera fuliginea assessed as cucumber powdery mildew control under greenhouse at 2 ppm foliar application 24 hr after inoculation on upper surface of leaf at 23 +/- 2 degC by curative manner
Pyricularia oryzae [6] = experiment: Fungicidal activity against Magnaporthe oryzae assessed as rice blast disease control at 10 ppm submerged application measured after 7 days
Pyricularia oryzae [7] = experiment: Fungicidal activity against Magnaporthe oryzae assessed as rice blast disease control at 2.5 ppm submerged application measured after 7 days
Pyricularia oryzae [8] = experiment: Fungicidal activity against Magnaporthe oryzae assessed as rice blast disease control at 0.63 ppm submerged application measured after 7 days
Pyricularia oryzae [9] = experiment: Fungicidal activity against Magnaporthe oryzae assessed as rice blast disease control at 0.16 ppm submerged application measured after 7 days
[10] = test system: Pseudoperonospora cubensis; experiment: Fungicidal activity against Pseudoperonospora cubensis assessed as cucumber downy mildew disease control at 125 ppm foliar application 24 hr before inoculation on upper surface of leaf by preventive manner
[11] = test system: Pseudoperonospora cubensis; experiment: Fungicidal activity against Pseudoperonospora cubensis assessed as cucumber downy mildew disease control at 31.3 ppm foliar application 24 hr before inoculation on upper surface of leaf by preventive manner
[12] = test system: Pseudoperonospora cubensis; experiment: Fungicidal activity against Pseudoperonospora cubensis assessed as cucumber downy mildew disease control at 7.8 ppm foliar application 24 hr before inoculation on upper surface of leaf by preventive manner
[13] = test system: Pseudoperonospora cubensis; experiment: Fungicidal activity against Pseudoperonospora cubensis assessed as cucumber downy mildew disease control at 2 ppm foliar application 24 hr before inoculation on upper surface of leaf by preventive manner
Podosphaera fuliginea [14] = experiment: Fungicidal activity against Podosphaera fuliginea assessed as cucumber powdery mildew control under greenhouse at 125 ppm foliar application 24 hr before inoculation on upper surface of leaf at 23 +/- 2 degC by preventive manner
Podosphaera fuliginea [15] = experiment: Fungicidal activity against Podosphaera fuliginea assessed as cucumber powdery mildew control under greenhouse at 31.3 ppm foliar application 24 hr before inoculation on upper surface of leaf at 23 +/- 2 degC by preventive manner
Podosphaera fuliginea [16] = experiment: Fungicidal activity against Podosphaera fuliginea assessed as cucumber powdery mildew control under greenhouse at 7.8 ppm foliar application 24 hr before inoculation on upper surface of leaf at 23 +/- 2 degC by preventive manner
Podosphaera fuliginea [17] = experiment: Fungicidal activity against Podosphaera fuliginea assessed as cucumber powdery mildew control under greenhouse at 2 ppm foliar application 24 hr before inoculation on upper surface of leaf at 23 +/- 2 degC by preventive manner
Thanatephorus cucumeris [18] = experiment: Fungicidal activity against Thanatephorus cucumeris assessed as rice sheath blight disease control at 125 ppm foliar application for 24 hr before inoculation at 26 +- 2 measured after 5 days by preventive manner
Botrytis cinerea [19] = experiment: Fungicidal activity against Botryotinia fuckeliana assessed as cucumber gray mold disease control at 31.3 ppm foliar application 24 hr after inoculation at 22 +/- 2 degC measured after 3 days by curative manner
Botrytis cinerea [20] = experiment: Fungicidal activity against Botryotinia fuckeliana assessed as cucumber gray mold disease control at 7.8 ppm foliar application 24 hr after inoculation at 22 +/- 2 degC measured after 3 days by curative manner
Botrytis cinerea [21] = experiment: Fungicidal activity against Botryotinia fuckeliana assessed as cucumber gray mold disease control at 2 ppm foliar application 24 hr after inoculation at 22 +/- 2 degC measured after 3 days by curative manner
Podosphaera fuliginea [22] = experiment: Fungicidal activity against Podosphaera fuliginea assessed as cucumber powdery mildew control under greenhouse at 125 ppm foliar application 24 hr after inoculation on upper surface of leaf at 23 +/- 2 degC by curative manner
Podosphaera fuliginea [23] = experiment: Fungicidal activity against Podosphaera fuliginea assessed as cucumber powdery mildew control under greenhouse at 31.3 ppm foliar application 24 hr after inoculation on upper surface of leaf at 23 +/- 2 degC by curative manner
[24] = test system: Pseudoperonospora cubensis; experiment: Fungicidal activity against Pseudoperonospora cubensis assessed as cucumber downy mildew disease control at 125 ppm foliar application 24 hr after inoculation on upper surface of leaf by curative manner
[25] = test system: Pseudoperonospora cubensis; experiment: Fungicidal activity against Pseudoperonospora cubensis assessed as cucumber downy mildew disease control at 31.3 ppm foliar application 24 hr after inoculation on upper surface of leaf by curative manner
[26] = test system: Pseudoperonospora cubensis; experiment: Fungicidal activity against Pseudoperonospora cubensis assessed as cucumber downy mildew disease control at 7.8 ppm foliar application 24 hr after inoculation on upper surface of leaf by curative manner
[27] = test system: Pseudoperonospora cubensis; experiment: Fungicidal activity against Pseudoperonospora cubensis assessed as cucumber downy mildew disease control at 2 ppm foliar application 24 hr after inoculation on upper surface of leaf by curative manner
Botrytis cinerea [28] = experiment: Fungicidal activity against Botryotinia fuckeliana assessed as cucumber gray mold disease control at 125 ppm foliar application 24 hr after inoculation at 22 +/- 2 degC measured after 3 days by curative manner

SMILES	Activity (Thanatephorus cucumeris [1]) [%]	Activity (Thanatephorus cucumeris [2]) [%]	Activity (Thanatephorus cucumeris [3]) [%]	Activity (Podosphaera fuliginea [4]) [%]	Activity (Podosphaera fuliginea [5]) [%]	Activity [10] [%]	Activity [11] [%]	Activity [12] [%]	Activity [13] [%]	Activity (Podosphaera fuliginea [14]) [%]	Activity (Podosphaera fuliginea [15]) [%]	Activity (Podosphaera fuliginea [16]) [%]	Activity (Podosphaera fuliginea [17]) [%]	Activity (Thanatephorus cucumeris [18]) [%]	Activity (Botrytis cinerea [19]) [%]	Activity (Botrytis cinerea [20]) [%]	Activity (Botrytis cinerea [21]) [%]	Activity (Podosphaera fuliginea [22]) [%]	Activity (Podosphaera fuliginea [23]) [%]	Activity (Botrytis cinerea [28]) [%]	also measured
CNC(=O)/C(=N/OC)c1ccccc1Oc1ccc(Cl)cc1	70	70	70	50	50	70	70	70	70	70	70	70	70	70	50	50	50	50	50	50	Activity (Pyricularia oryzae [6]): 50%; Activity (Pyricularia oryzae [7]): 50%; Activity (Pyricularia oryzae [8]): 50%; Activity (Pyricularia oryzae [9]): 50%; Activity [24]: 50%; Activity [25]: 50%; Activity [26]: 50%; Activity [27]: 50%
CNC(=O)/C(=N/OC)c1ccccc1Oc1ccc(Br)cc1	70	70	70	50	50	<70	<70	<70	<70	70	70	70	70	70	50	50	50	50	50	50	Activity (Pyricularia oryzae [6]): 50%; Activity (Pyricularia oryzae [7]): 50%; Activity (Pyricularia oryzae [8]): 50%; Activity (Pyricularia oryzae [9]): 50%; Activity [24]: <50%; Activity [25]: <50%; Activity [26]: <50%; Activity [27]: <50%
CNC(=O)/C(=N/OC)c1ccccc1Oc1ccc(Cl)c(C)c1	70	70	70	50	50	70	70	70	70	70	70	70	70	70	50	50	50	50	50	50	Activity (Pyricularia oryzae [6]): 50%; Activity (Pyricularia oryzae [7]): 50%; Activity (Pyricularia oryzae [8]): 50%; Activity (Pyricularia oryzae [9]): 50%; Activity [24]: 50%; Activity [25]: 50%; Activity [26]: 50%; Activity [27]: 50%
CNC(=O)/C(=N/OC)c1ccccc1Oc1ccc(C(C)(C)C)cc1	70	70	70	50	50	<70	<70	<70	<70	70	70	70	70	70	50	50	50	50	50	50	Activity (Pyricularia oryzae [6]): 50%; Activity (Pyricularia oryzae [7]): 50%; Activity (Pyricularia oryzae [8]): 50%; Activity (Pyricularia oryzae [9]): 50%; Activity [24]: <50%; Activity [25]: <50%; Activity [26]: <50%; Activity [27]: <50%
CNC(=O)/C(=N/OC)c1ccccc1Oc1ccc(OC)cc1	70	70	70	50	50	70	70	70	70	70	70	70	70	70	50	50	50	50	50	50	Activity (Pyricularia oryzae [6]): 50%; Activity (Pyricularia oryzae [7]): 50%; Activity (Pyricularia oryzae [8]): 50%; Activity (Pyricularia oryzae [9]): 50%; Activity [24]: 50%; Activity [25]: 50%; Activity [26]: 50%; Activity [27]: 50%
CNC(=O)/C(=N/OC)c1ccccc1Oc1ccccc1C	<70	<70	<70	50	50	<70	<70	<70	<70	70	70	70	70	<70	50	50	50	50	50	50	Activity (Pyricularia oryzae [6]): 50%; Activity (Pyricularia oryzae [7]): 50%; Activity (Pyricularia oryzae [8]): 50%; Activity (Pyricularia oryzae [9]): 50%
CNC(=O)/C(=N/OC)c1ccccc1Oc1ccc(C)cc1	70	70	70	50	50	<70	<70	<70	<70	70	70	70	70	70	50	50	50	50	50	50	Activity (Pyricularia oryzae [6]): 50%; Activity (Pyricularia oryzae [7]): 50%; Activity (Pyricularia oryzae [8]): 50%; Activity (Pyricularia oryzae [9]): 50%
CNC(=O)/C(=N/OC)c1ccccc1Oc1ccc([N+](=O)[O-])cc1	<70	<70	<70	50	50	<70	<70	<70	<70	70	70	70	70	<70	50	50	50	50	50	50	Activity [24]: <50%; Activity [25]: <50%; Activity [26]: <50%; Activity [27]: <50%
